Where “and” joins values, the source holds several entries; their conditions need not be identical. Equal values may be shown once.
Tests used:
Type in all cases: in vivo, human
subjects with BOS [1] = assay: Example 3: FEV1 evaluation in BOS
Protocol: Patients with BOS were identified as: 1) % predicted forced expiratory volume in 1 second (% FEV1) of £79% at enrollment, and 2) clinician attribution of lung disease due to cGVHD.
In Example 1, lung function assessments were conducted at baseline and on Day 1 of each cycle for patients with suspected of known lung involvement. In Example 2, lung function assessments were conducted at baseline and at the time of response assessments: Day 1 of cycles 2-5 and then on Day 1 of every other cycle thereafter.

subjects with cGVHD = assay: Example 2: 7-day LSS summary score; settings: for Clinically significant improvement from baseline (LSS), Overall: decrease ≥7 points in LSS score, mITT population
Protocol: All responses were assessed by the study site investigators.

subjects with BOS [2] = assay: Example 3: Lee Symptom Scale lung score in BOS
Description: Following the methodology used for the LSS, we identified a 10-point difference (half a standard deviation from baseline scores) as being a clinically meaningful organ-specific change in this dataset. (Lee S et al. Development and validation of a scale to measure symptoms of chronic graft-versus-host disease. Biol Blood Marrow Transplant 2002; 8 (8): 444-452; Teh C et al. Reliability and Validity of the Modified 7-Day Lee Chronic Graft-versus-Host Disease Symptom Scale. Biol Blood Marrow Transplant 2020; 26 (3): 562-567.) Forty subjects (68%) experienced a clinically meaningful improvement (10-point reduction) in the LSS lung score.

patients with cGVHD = assay: Example 1: time to next therapy, failure-free survival, overall survival
Protocol: Time to next therapy (TTNT). The TTNT was defined as the time (in months) from first treatment to the time of new systemic cGVHD treatment. TTNT was censored by last response assessment or long term follow up assessment, whichever was earlier. Kaplan-Meier survival method was used for the analysis. […] Analysis was performed on mITT population.
Failure-free survival was defined as the time (in months) from first dose of study drug to either the start of another new systemic treatment for cGVHD, relapse of the underlying disease or death. If no such events happened, FFS was censored by last response assessment or long term follow up assessment, whichever was the latest and available. Kaplan-Meier survival method was used for the analysis. Analysis was performed on mITT population.
Overall survival was defined as the time (in months) from first dose of study drug to the death due to any reason. If there was no death, OS was censored by last visit, last long term follow-up, or study cutoff date, whichever was the latest. Kaplan-Meier survival method was used for the analysis.

With CC(C)NC(=O)COc1cccc(-c2nc(Nc3ccc4[nH]ncc4c3)c3ccccc3n2)c1 [Belumosudil, 2-{3-[4-(1H-indazol-5-ylamino)-2-quinazolinyl]phenoxy}-N-(propan-2-yl) acetamide] as the compound, how does the “Subjects with ^3 5% absolute improvement in % FEV1 from baseline” value (subjects with BOS [1]; 59 subjects) read?
The value was 39%.

What about the “Subjects with ^3 10% absolute improvement in % FEV1 from baseline” value (subjects with BOS [1]; 59 subjects) of the same compound?
The value was 22%.

What about the “Subjects with at least a 200 mL improvement in FEV1 from baseline” value (subjects with BOS [1]; Example 2 subjects only) of the same compound?
The value was 36%.

What about the “Subjects with ^3 5% absolute improvement in % FEV1” value (subjects with BOS [1]; baseline NIH lung score 1) of the same compound?
Its value is 57%.

And the “Subjects with ^3 5% absolute improvement in % FEV1” value (subjects with BOS [1]; baseline NIH lung score 2)?
The value was 13%.

What about the “Subjects with ^3 5% absolute improvement in % FEV1” value (subjects with BOS [1]; baseline NIH lung score 3) of the same compound?
Its value is 50%.

What about the “Subjects with at least a 200 mL improvement in FEV1” value (subjects with BOS [1]; baseline lung score 1) of the same compound?
Its value is 41%.

What about the “Subjects with at least a 200 mL improvement in FEV1” value (subjects with BOS [1]; baseline lung score 2) of the same compound?
Its value is 31%.

What about the “Subjects with 200 mL improvement in FEV1” value (subjects with BOS [1]; non-responders) of the same compound?
Its value is 19%.

And the “Subjects with ^3 5% absolute improvement in % FEV1” value (subjects with BOS [1]; non-responders)?
The value was 18%.

And the “Subjects with 200 mL improvement in FEV1” value (subjects with BOS [1]; responders by NIH criteria)?
The value was 66%.

What about the “Subjects with ^3 5% absolute improvement in % FEV1” value (subjects with BOS [1]; responders by NIH criteria) of the same compound?
The value was 84%.

What about the “Clinically meaningful improvement in 7-day LSS summary score” value (subjects with cGVHD; 200 mg daily, nonresponders) of the same compound?
The value was 29%.

And the “Clinically meaningful improvement in 7-day LSS summary score” value (subjects with cGVHD; 200 mg daily, responders)?
Its value is 69%.

What about the “Clinically meaningful improvement in 7-day LSS summary score” value (subjects with cGVHD; 200 mg twice daily, nonresponders) of the same compound?
The value was 33%.

What about the “Clinically meaningful improvement in 7-day LSS summary score” value (subjects with cGVHD; 200 mg twice daily, responders) of the same compound?
The value was 71%.

What about the “Clinically significant improvement from baseline (LSS), Overall” value (subjects with cGVHD; 200 mg daily (n = 66)) of the same compound?
Its value is 39 (59) n (%).

And the “Clinically significant improvement from baseline (LSS), Overall” value (subjects with cGVHD; 200 mg twice daily (n = 66))?
Its value is 41 (62) n (%).

And the “Subjects with clinically meaningful improvement (10-point reduction) in LSS lung score” value (subjects with BOS [2]; 59 subjects)?
The value was 68%.

And the “Clinically meaningful improvement in LSS lung score” value (subjects with BOS [2]; baseline NIH lung score 1)?
Its value is 66%.

What about the “Clinically meaningful improvement in LSS lung score” value (subjects with BOS [2]; baseline NIH lung score 2) of the same compound?
Its value is 61%.

What about the “Clinically meaningful improvement in LSS lung score” value (subjects with BOS [2]; baseline NIH lung score 3) of the same compound?
The value was 100%.

What about the “Clinically meaningful improvement in LSS lung score” value (subjects with BOS [2]; non-responders) of the same compound?
Its value is 68% and 67.5%.

What about the “Clinically meaningful improvement in LSS lung score” value (subjects with BOS [2]; subjects with 35% best improvement in % FEV1) of the same compound?
Its value is 61%.

What about the “Clinically meaningful improvement in LSS lung score” value (subjects with BOS [2]; subjects with <5% best improvement in % FEV1) of the same compound?
Its value is 69%.

And the “FFS rate at 6 months” value (patients with cGVHD)?
The value was 76%.

What about the “FFS rate at 12 months” value (patients with cGVHD) of the same compound?
The value was 47%.

Source: patent US20250255867A1 (Kadmon Corporation, LLC, priority 2022, published 2025)
